Source: PMC11481871, “Discovery of GuaB inhibitors with efficacy against Acinetobacter baumannii infection” (mBio, 2024)
Values after ≈ are worked out from the molar mass of the structure shown. Values joined by “and” are separate entries in the source; they are usually repeats but may differ in a detail not shown here. Identical values can stand only once. Like-named read-outs stand apart in the source and are kept apart here.

Assays:
[1] = system: A. baumannii ΔlpxA (LPS-null); experiment: MIC on LPS-null A. baumannii; type: cell-based; conditions: Acinetobacter baumannii, read-out: Avg. MIC
[2] = target: E. coli GuaB (Escherichia coli, UniProt P0ADG7); experiment: GuaB biochemical IC50
Chain of E. coli GuaB (P0ADG7 whole entry): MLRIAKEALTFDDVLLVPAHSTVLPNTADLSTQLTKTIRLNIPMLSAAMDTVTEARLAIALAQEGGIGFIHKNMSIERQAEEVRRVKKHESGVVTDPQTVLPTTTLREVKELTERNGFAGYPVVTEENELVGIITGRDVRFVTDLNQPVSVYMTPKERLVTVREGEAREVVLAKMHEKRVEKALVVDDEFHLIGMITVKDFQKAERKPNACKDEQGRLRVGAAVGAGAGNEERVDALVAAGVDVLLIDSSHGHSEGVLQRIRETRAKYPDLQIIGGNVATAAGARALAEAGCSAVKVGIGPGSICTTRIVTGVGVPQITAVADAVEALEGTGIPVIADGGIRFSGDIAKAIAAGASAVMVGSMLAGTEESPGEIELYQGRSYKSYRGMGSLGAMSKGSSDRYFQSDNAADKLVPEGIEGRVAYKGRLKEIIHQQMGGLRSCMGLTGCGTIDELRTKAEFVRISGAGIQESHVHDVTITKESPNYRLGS

[3] = system: Enterococcus faecalis; experiment: MIC, CLSI microdilution; type: cell-based; conditions: Enterococcus faecalis (ATCC47077); RPMI1640
[4] = system: Enterobacter cloacae; experiment: MIC, CLSI microdilution; type: cell-based; conditions: 20 h; Enterobacter cloacae (ATCC222); M9 + casamino acids + glucose
[5] = system: Primary human hepatocytes; experiment: in vitro; type: cell-based
Description: (§1) Primary human hepatocytes were plated on 384-well, collagen-coated plates in incubation media with no serum or with 10% fetal bovine serum (FBS). Eighteen hours later, cells were treated with the test article at seven concentrations starting at 100 µM in twofold dilutions, chlorpromazine (positive control) at seven concentrations starting at 100 µM in twofold dilutions or aflatoxin (positive control) at seven concentrations starting at 25 µM in twofold dilutions. Cell viability was then assayed using the Promega Cell TiterGlo ATP Assay.

[6] = in vitro; type: cell-based, human; conditions: human
Description: as §1

[7] = system: Enterococcus faecium; experiment: MIC, CLSI microdilution; type: cell-based; conditions: Enterococcus faecium (ATCC700221); RPMI1640
[8] = system: Klebsiella pneumoniae; experiment: MIC, CLSI microdilution; type: cell-based; conditions: ATCC43816, 20 h; Klebsiella pneumoniae (ATCC 43816); M9 + casamino acids + glucose
[9] = system: Bacillus subtilis; experiment: MIC, CLSI microdilution; type: cell-based; conditions: RPMI1640
[10] = system: A. baumannii ΔadeJ (efflux-defective); experiment: microbe, parasite or virus in culture; type: cell-based; conditions: Acinetobacter baumannii, read-out: Avg. MIC
[11] = system: Mycobacterium smegmatis; experiment: MIC, CLSI microdilution; type: cell-based; conditions: Mycolicibacterium smegmatis; Mycobacterium smegmatis mc2-155; 7H9 + OADC, 48 h
[12] = system: Escherichia coli; experiment: MIC, CLSI microdilution; type: cell-based; conditions: 20 h; Escherichia coli UPEC CFT073; M9 + casamino acids + glucose
[13] = system: Pseudomonas aeruginosa; experiment: MIC, CLSI microdilution; type: cell-based; conditions: 20 h; Pseudomonas aeruginosa PAO1; M9 + casamino acids + glucose
[14] = target: A. baumannii GuaB (Acinetobacter baumannii, UniProt D0CF46); experiment: GuaB biochemical IC50
Chain of A. baumannii GuaB (D0CF46 entry or part of it): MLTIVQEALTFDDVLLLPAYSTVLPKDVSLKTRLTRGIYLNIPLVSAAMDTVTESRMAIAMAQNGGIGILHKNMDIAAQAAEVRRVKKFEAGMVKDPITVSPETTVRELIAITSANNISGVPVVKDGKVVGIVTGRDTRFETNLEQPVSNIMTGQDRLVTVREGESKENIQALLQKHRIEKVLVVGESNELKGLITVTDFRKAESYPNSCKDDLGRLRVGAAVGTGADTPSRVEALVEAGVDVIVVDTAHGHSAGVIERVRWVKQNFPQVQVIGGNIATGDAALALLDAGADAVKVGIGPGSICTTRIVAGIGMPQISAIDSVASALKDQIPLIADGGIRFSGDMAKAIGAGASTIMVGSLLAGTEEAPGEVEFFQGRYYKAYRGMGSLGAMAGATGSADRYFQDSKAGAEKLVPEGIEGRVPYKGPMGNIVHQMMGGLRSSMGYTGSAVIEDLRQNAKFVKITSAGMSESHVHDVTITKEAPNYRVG

[15] = target: T1, hERG (Homo sapiens, UniProt Q12809); experiment: hERG 2-point automatic patch clamp assay; type: cell-based
T1 construct: expressed in transfected cells; host or cells: HEK293
T1 sequence (Q12809 whole entry): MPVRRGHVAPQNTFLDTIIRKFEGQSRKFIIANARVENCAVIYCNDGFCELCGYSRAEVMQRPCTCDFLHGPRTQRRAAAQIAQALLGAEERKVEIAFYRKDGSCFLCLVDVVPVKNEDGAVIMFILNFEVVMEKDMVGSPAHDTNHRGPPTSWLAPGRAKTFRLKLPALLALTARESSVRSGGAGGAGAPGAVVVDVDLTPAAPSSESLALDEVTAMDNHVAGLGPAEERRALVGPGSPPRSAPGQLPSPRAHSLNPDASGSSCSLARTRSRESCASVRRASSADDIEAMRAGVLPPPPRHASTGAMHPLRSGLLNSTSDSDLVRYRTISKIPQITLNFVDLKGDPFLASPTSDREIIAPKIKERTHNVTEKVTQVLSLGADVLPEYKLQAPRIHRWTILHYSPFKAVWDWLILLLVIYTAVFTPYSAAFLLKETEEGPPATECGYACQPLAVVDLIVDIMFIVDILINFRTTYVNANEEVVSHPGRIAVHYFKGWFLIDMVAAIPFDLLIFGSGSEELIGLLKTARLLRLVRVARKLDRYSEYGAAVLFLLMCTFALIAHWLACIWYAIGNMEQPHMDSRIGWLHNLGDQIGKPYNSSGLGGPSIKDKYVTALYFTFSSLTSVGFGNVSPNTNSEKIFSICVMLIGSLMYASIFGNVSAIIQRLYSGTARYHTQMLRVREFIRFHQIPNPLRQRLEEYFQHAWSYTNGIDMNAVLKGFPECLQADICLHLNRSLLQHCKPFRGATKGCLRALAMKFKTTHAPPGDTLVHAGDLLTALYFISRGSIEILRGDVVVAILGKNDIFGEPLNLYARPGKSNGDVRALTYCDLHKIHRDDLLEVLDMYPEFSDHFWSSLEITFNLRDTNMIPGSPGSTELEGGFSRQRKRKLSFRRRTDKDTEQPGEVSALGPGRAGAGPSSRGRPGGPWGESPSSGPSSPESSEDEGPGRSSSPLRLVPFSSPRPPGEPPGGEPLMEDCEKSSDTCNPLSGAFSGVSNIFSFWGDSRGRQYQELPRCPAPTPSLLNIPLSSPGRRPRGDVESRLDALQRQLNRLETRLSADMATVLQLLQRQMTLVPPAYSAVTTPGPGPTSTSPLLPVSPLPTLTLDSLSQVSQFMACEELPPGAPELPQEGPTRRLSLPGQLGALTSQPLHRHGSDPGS
Description: All chemicals used in solution preparation were purchased from Sigma-Aldrich (St. Louis, MO) unless otherwise noted. Test article and positive control concentrations were prepared fresh daily by diluting stock solutions into a HEPES-buffered physiological saline solution (composition in mM): NaCl, 137; KCl, 4.0; CaCl2, 1.8; MgCl2, 1; HEPES, 10; glucose, 10; pH adjusted to 7.4 with NaOH. HEK293 cells were stably transfected with hERG cDNA and maintained in the culture medium with the appropriate selection pressure and antibiotics. All experiments were performed at room temperature. […]
In preparation for a recording session, intracellular solution was loaded into the intracellular compartments of the QPlate and cell suspension was pipetted into the extracellular compartments. After establishment of a whole-cell configuration, membrane currents were recorded using up to 48 parallel patch clamp amplifiers in the QPatch HT system. The current records were sampled at 2,000 Hz and low-pass Bessel filtered at 400 Hz. Onset and block of hERG current were measured using a stimulus voltage pattern consisting of a 500 ms prepulse to –40 mV (leakage subtraction), a 2-s activating pulse to +40 mV, followed by a 2-s test pulse to −40 mV. The pulse pattern was repeated continuously at 10-s intervals, from a holding potential of −80 mV. Peak tail current (upper panel) was measured during the −40 mV test pulse. Leakage current was calculated from the current amplitude evoked by the prepulse and subtracted from the total membrane current record. Data acquisition and analysis was performed using the QPatch Assay Software (Sophion Bioscience A/S, Denmark). Solubility of all compounds was measured using TurboSol in conjunction with the ion channel testing.

[16] = target: S. aureus GuaB (Staphylococcus aureus, UniProt P99106); experiment: GuaB biochemical IC50
Chain of S. aureus GuaB (P99106 whole entry): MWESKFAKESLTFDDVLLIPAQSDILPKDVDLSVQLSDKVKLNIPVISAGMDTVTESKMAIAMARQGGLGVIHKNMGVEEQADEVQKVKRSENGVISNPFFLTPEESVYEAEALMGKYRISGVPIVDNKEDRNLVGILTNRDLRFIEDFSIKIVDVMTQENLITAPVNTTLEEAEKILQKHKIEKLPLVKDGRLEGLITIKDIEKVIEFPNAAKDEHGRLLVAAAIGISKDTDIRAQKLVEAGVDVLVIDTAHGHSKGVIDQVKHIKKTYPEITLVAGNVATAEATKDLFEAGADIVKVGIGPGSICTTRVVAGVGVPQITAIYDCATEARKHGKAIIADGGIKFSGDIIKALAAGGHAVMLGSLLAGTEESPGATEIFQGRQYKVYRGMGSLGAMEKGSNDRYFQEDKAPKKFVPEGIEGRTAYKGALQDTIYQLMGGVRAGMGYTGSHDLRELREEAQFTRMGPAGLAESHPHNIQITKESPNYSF

[17] = system: Staphylococcus epidermidis; experiment: MIC, CLSI microdilution; type: cell-based; conditions: Staphylococcus epidermidis RP62A (ATCC35984); RPMI1640
[18] = system: Citrobacter werkmanii; experiment: MIC, CLSI microdilution; type: cell-based; conditions: 20 h; Citrobacter werkmanii (ATCC51114); M9 + casamino acids + glucose
[19] = target: H. sapiens IMPDH2 (Homo sapiens, UniProt P12268); experiment: IMPDH2 biochemical IC50
[20] = system: Enterobacter aerogenes; experiment: MIC, CLSI microdilution; type: cell-based; conditions: Klebsiella aerogenes, 20 h; Enterobacter aerogenes (ATCC13048); M9 + casamino acids + glucose
[21] = system: Staphylococcus aureus; experiment: MIC, CLSI microdilution; type: cell-based; conditions: NRS 384 / USA300; Staphylococcus aureus USA300 NRS384; RPMI1640
[22] = system: 41 different cellular targets; experiment: Secondary pharmacology panel (Cerep Eurofins); type: binding; conditions: for Hits (>50% Binding) / Hits (>75% Binding): 41 targets
[23] = system: Acinetobacter baumannii ATCC19606 GuaB mutants; experiment: MIC on GuaBi-resistant A. baumannii 19606 guaB mutants; type: cell-based; conditions: for MIC: Acinetobacter baumannii; for shifts in MIC conferred by on-target mutations: GuaBi-resistant mutants; for Fold shift in MIC vs parental wild-type / MIC of resistant mutant: from fluctuation assay
[24] = General cytotoxicity IC50, Serum
[25] = General cytotoxicity IC50, Serum-Free
[26] = ATCC19606, read-out: A.b.19606 Average CLSI MIC (n=3), guaB allele P25A, M9 media
[27] = ATCC19606, read-out: A.b.19606 Average CLSI MIC (n=3), guaB allele P25S, M9 media
[28] = ATCC19606, read-out: A.b.19606 Average CLSI MIC (n=3), guaB allele Y445C, M9 media
[29] = ATCC19606, read-out: A.b.19606 Average CLSI MIC (n=3), guaB allele Y445N, M9 media
[30] = ATCC19606, read-out: A.b.19606 Average CLSI MIC (n=3), guaB allele Y445S, M9 media
[31] = ATCC19606, read-out: MIC of resistant mutant, resistance allele Y445S, from fluctuation assay

`C[C@H](Nc1ccc2ncc3c(c2c1)CCOC3)C(=O)Nc1ccc(Cl)nc1` [G1, (2S)-N-(6-chloro-3-pyridyl)-2-(2,4-dihydro-1H-pyrano[3,4-c]quinolin-9 ylamino)propanamide] gave an MIC [1] of 0.025 µM (≈ 0.00957 µg/mL), an IC50 [2] of 480 nM and an MIC [3] of 0.2 µM (≈ 0.0766 µg/mL). The MIC [4] was > 100 µM, the “in vitro safety profile: cytotoxicity” value [5] was “low cytotoxicity” and the IC50 at 2 day [6, 24] was > 100000 nM. The IC50 at 2 day [6, 25] was > 100000 nM, the MIC [7] was 1 µM (≈ 0.383 µg/mL) and the MIC [8] was > 100 µM. The MIC [9] was 1.2 µM (≈ 0.459 µg/mL), the MIC [10] was 0.016 µM (≈ 0.00613 µg/mL) and the MIC [11] was 0.01 µM. For the same compound, the MIC [12] was > 100 µM, the MIC [13] was 100 µM and the IC50 [14] was 0.26 nM. For the same compound, the “hERG 1µM” value [15] was 2.80%, the “hERG 10µM” value [15] was 37.20% and the IC50 [16] was 0.38 nM. The MIC [17] was 0.03 µM (≈ 0.0115 µg/mL), the MIC [18] was > 100 µM and the IC50 [19] was > 50000 nM. For the same compound, the MIC [20] was > 100 µM, the MIC [21] was 0.1 µM (≈ 0.0383 µg/mL) and the “in vitro safety profile: promiscuity” value [22] was “low promiscuity”. For the same compound, the “in vitro safety profile: selectivity” value [22] was “good selectivity”, the “Promiscuity Risk” value ([22]; 10µM) was 0% and the “Selectivity Risk” value ([22]; 10µM) was 0%. For the same compound, the “Hits (>50% Binding)” value ([22]; 10µM) was 0, the “Hits (>75% Binding)” value ([22]; 10µM) was 0 and the MIC [23, 26] was 6.3 µM (≈ 2.41 µg/mL). For the same compound, the MIC [23, 27] was 2.6 µM (≈ 0.995 µg/mL), the MIC [23, 28] was 1.6 µM (≈ 0.613 µg/mL) and the MIC [23, 29] was 41.7 µM (≈ 16 µg/mL). For the same compound, the MIC [23, 30] was > 100 µM, the MIC ([23]; ATCC19606, read-out: MIC of resistant mutant, resistance allele Y445N, from fluctuation assay) was 50 µM and the MIC [23, 31] was 50 µM. The “shifts in MIC conferred by on-target mutations” value [23] was ≥ 32 fold, the “GuaBi CLSI MIC fold change from parent strain” value (“GuaBi CLSI MIC fold change” for short) ([23]; guaB allele P25A) was 12 and the “GuaBi CLSI MIC fold change” value ([23]; guaB allele P25S) was 5. For the same compound, the “GuaBi CLSI MIC fold change” value ([23]; guaB allele Y445C) was 3, the “GuaBi CLSI MIC fold change” value ([23]; guaB allele Y445N) was 80 and the “GuaBi CLSI MIC fold change” value ([23]; guaB allele Y445S) was >200. The “Fold shift in MIC vs parental wild-type” value ([23]; resistance allele Y445N) was 64, 64 and 64, the “MIC of resistant mutant” value ([23]; resistance allele Y445N) was 50 µM and the “Fold shift in MIC vs parental wild-type” value ([23]; resistance allele Y445S) was 64, 64.
In the case of `C[C@H](Nc1ccc2ncc(CO)cc2c1)C(=O)Nc1ccc(Cl)c(N(C)C)c1` [G2, (2S)-N-[4-chloro-3-(dimethylamino)phenyl]-2-[[3-(hydroxymethyl)-6-quinolyl]amino]propanamide], the MIC [1] is reported as 0.07 µM (≈ 0.0279 µg/mL), the IC50 [2] is reported as 16 nM and the MIC [3] is reported as 0.3 µM (≈ 0.12 µg/mL). The MIC [4] was > 100 µM, the “in vitro safety profile: cytotoxicity” value [5] was “low cytotoxicity” and the IC50 at 2 day [6, 24] was > 100000 nM. For the same compound, the IC50 at 2 day [6, 25] was > 100000 nM, the MIC [7] was 5.2 µM (≈ 2.07 µg/mL) and the MIC [8] was > 100 µM. For the same compound, the MIC [9] was 13.8 µM (≈ 5.5 µg/mL), the MIC [10] was 0.04 µM (≈ 0.016 µg/mL) and the MIC [11] was 1.3 µM. For the same compound, the MIC [12] was > 100 µM, the MIC [13] was > 100 µM and the IC50 [14] was 0.63 nM. The “hERG 1µM” value [15] was 1.70%, the “hERG 10µM” value [15] was 8.60% and the “hERG 50µM” value ([15]; 50µM) was “*48.5%”. For the same compound, the IC50 [16] was 3.4 nM, the MIC [17] was 0.4 µM (≈ 0.16 µg/mL) and the MIC [18] was > 100 µM. For the same compound, the IC50 [19] was > 50000 nM, the MIC [20] was > 100 µM and the MIC [21] was 1.6 µM (≈ 0.638 µg/mL). The “in vitro safety profile: promiscuity” value [22] was “low promiscuity”, the “in vitro safety profile: selectivity” value [22] was “good selectivity” and the “Promiscuity Risk” value ([22]; 10µM) was 0%. The “Selectivity Risk” value ([22]; 10µM) was 0%, the “Hits (>50% Binding)” value ([22]; 10µM) was 0 and the “Hits (>75% Binding)” value ([22]; 10µM) was 0. For the same compound, the “Promiscuity Risk” value ([22]; 50µM) was 0%, the “Selectivity Risk” value ([22]; 50µM) was 3% and the “Hits (>50% Binding)” value ([22]; 50µM) was 1. The “Hits (>75% Binding)” value ([22]; 50µM) was 0, the MIC [23, 26] was 66.7 µM (≈ 26.6 µg/mL) and the MIC [23, 27] was 66.7 µM (≈ 26.6 µg/mL). For the same compound, the MIC [23, 28] was 50 µM (≈ 19.9 µg/mL), the MIC [23, 29] was > 100 µM and the MIC [23, 30] was > 100 µM. The MIC ([23]; ATCC19606, read-out: MIC of resistant mutant, resistance allele P25A, from fluctuation assay) was 50 µM, the MIC ([23]; ATCC19606, read-out: MIC of resistant mutant, resistance allele P25S, from fluctuation assay) was 50 µM and the MIC ([23]; ATCC19606, read-out: MIC of resistant mutant, resistance allele Y445C, from fluctuation assay) was 50 µM. For the same compound, the MIC [23, 31] was 100 µM, the “shifts in MIC conferred by on-target mutations” value [23] was ≥ 32 fold and the “GuaBi CLSI MIC fold change” value ([23]; guaB allele P25A) was 16. For the same compound, the “GuaBi CLSI MIC fold change” value ([23]; guaB allele P25S) was 16, the “GuaBi CLSI MIC fold change” value ([23]; guaB allele Y445C) was 12 and the “GuaBi CLSI MIC fold change” value ([23]; guaB allele Y445N) was >25. For the same compound, the “GuaBi CLSI MIC fold change” value ([23]; guaB allele Y445S) was >25, the “Fold shift in MIC vs parental wild-type” value ([23]; resistance allele P25A) was 32, 32, 32 and the “Fold shift in MIC vs parental wild-type” value ([23]; resistance allele P25S) was 32, 32, 32 and 32. The “MIC of resistant mutant” value ([23]; resistance allele P25S) was 50 µM, the “Fold shift in MIC vs parental wild-type” value ([23]; resistance allele Y445C) was 32, 32, 32 and 64 and the “MIC of resistant mutant” value ([23]; resistance allele Y445C) was 100 µM. For the same compound, the “Fold shift in MIC vs parental wild-type” value ([23]; resistance allele Y445S) was 64.
